Laboratory results reported in patent publication US11661431B2, “Thienopyrrole compounds” (Gilead Sciences, Inc., priority 2021, dated 2023).
pEC50: −log10 of the molar value.

Experiments:
TLR7 = TLR7 (Homo sapiens (Human), UniProt Q9NYK1); assay: TLR7 human peripheral blood mononuclear cell (PBMC) cell-based assay (GS-986 as agonist; IL-6 and IFNα readout); conditions: human PBMCs, TLR7 agonist GS-986 at 400 nM, 6 hours, antagonist potency; read-out: TLR-7 EC50
Method: Human peripheral blood mononuclear cells (PBMCs) consist of lymphocytes, monocytes and dendritic cells that express TLR7, TLR8 and TLR9. These cells respond to TLR7, TLR8 and TLR9 ligand stimulation and produce cytokines and chemokines in vitro and in vivo. Human PBMCs are therefore suitable to be used in a cell-based assay to assess the in vitro potency of a TLR 7, 8, and/or 9 antagonist.
After counting, the cell density was adjusted to 2 million cells/ml and incubated for 1 hour at 37° C., 5% CO2 for recovery. Following the recovery, the cells were plated by adding 50 μl per well (100,000 cells) to 384-well cell culture plates (Greiner) containing 250 nl of test antagonists in 100% DMSO per well, in a 10 points dose response in quadruplicates. PBMCs were incubated in the presence of test antagonists for one hour at 37° C., 5% CO2 before being stimulated with a TLR7 or TLR9agonist. […] PBMCs were incubated in the presence of the test antagonist and the TLR7 (or TLR9) agonist for an additional 6 hours at 37° C., 5% CO2. At the end of the incubation, the cell culture plates were centrifuged at 500 g for 5 min, and the cell culture supernatant was collected. The level of cytokines (IL-6 and IFNα) in the supernatant was measured by electrochemiluminescence immunoassays (Mesoscale Discovery) following manufacturer's recommended protocols.

TLR8 = TLR8 (Homo sapiens (Human), UniProt Q9NR97); assay: TLR8 human peripheral blood mononuclear cell (PBMC) cell-based assay (Compound A as agonist; TNFα and IL12p40 readout); conditions: human PBMCs, TLR8 agonist Compound A at 800 nM, 6 hours, antagonist potency; read-out: TLR-8 EC50
Sequence of TLR8 (Q9NR97 27-1041): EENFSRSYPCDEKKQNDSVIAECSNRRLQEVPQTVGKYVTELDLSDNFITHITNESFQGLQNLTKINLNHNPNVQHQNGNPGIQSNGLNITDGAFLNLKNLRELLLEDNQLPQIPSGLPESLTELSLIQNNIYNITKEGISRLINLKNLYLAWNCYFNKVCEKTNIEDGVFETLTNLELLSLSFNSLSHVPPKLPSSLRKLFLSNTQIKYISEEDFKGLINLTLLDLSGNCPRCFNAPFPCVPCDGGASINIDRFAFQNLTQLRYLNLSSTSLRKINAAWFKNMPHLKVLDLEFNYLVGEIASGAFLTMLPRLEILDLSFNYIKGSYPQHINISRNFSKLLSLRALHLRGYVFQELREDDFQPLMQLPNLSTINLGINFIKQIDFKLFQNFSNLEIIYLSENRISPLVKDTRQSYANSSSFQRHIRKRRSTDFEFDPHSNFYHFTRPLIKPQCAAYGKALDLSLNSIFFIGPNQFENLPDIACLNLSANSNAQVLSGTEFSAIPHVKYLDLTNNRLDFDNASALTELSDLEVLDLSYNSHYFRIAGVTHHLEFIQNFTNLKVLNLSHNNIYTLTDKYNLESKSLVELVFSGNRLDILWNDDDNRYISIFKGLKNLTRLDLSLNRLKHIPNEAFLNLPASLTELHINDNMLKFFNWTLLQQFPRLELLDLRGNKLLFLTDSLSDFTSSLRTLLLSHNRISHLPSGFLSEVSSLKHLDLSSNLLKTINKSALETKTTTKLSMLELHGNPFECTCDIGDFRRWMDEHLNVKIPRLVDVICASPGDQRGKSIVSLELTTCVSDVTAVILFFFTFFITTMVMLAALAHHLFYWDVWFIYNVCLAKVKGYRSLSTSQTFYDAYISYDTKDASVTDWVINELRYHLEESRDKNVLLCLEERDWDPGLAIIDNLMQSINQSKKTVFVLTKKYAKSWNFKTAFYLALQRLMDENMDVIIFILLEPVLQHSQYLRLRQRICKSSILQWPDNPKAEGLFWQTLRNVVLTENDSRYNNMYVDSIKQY
Method: After counting, the cell density was adjusted to 2 million cells/ml and incubated for 1 hour at 37° C., 5% CO2 for recovery. Following the recovery, the cells were plated by adding 50 μl per well (100,000 cells) to 384-well cell culture plates (Greiner) containing 250 nl of test antagonists in 100% DMSO per well, in a 10 points dose response in quadruplicates. PBMCs were incubated in the presence of antagonists for one hour at 37° C., 5% CO2 before being stimulated with TLR8 agonist. […] PBMCs were incubated in the presence of antagonist and the TLR8 agonist for an additional 6 hours at 37° C., 5% CO2. At the end of the incubation, the cell culture plates were centrifuged at 500 g for 5 min, and the cell culture supernatant was collected. The level of cytokines (TNFα and IL12p40) in the supernatant was measured by electrochemiluminescence immunoassays (Mesoscale Discovery) following manufacturer's recommended protocols.

Sequence of TLR7 (Q9NYK1 27-1049): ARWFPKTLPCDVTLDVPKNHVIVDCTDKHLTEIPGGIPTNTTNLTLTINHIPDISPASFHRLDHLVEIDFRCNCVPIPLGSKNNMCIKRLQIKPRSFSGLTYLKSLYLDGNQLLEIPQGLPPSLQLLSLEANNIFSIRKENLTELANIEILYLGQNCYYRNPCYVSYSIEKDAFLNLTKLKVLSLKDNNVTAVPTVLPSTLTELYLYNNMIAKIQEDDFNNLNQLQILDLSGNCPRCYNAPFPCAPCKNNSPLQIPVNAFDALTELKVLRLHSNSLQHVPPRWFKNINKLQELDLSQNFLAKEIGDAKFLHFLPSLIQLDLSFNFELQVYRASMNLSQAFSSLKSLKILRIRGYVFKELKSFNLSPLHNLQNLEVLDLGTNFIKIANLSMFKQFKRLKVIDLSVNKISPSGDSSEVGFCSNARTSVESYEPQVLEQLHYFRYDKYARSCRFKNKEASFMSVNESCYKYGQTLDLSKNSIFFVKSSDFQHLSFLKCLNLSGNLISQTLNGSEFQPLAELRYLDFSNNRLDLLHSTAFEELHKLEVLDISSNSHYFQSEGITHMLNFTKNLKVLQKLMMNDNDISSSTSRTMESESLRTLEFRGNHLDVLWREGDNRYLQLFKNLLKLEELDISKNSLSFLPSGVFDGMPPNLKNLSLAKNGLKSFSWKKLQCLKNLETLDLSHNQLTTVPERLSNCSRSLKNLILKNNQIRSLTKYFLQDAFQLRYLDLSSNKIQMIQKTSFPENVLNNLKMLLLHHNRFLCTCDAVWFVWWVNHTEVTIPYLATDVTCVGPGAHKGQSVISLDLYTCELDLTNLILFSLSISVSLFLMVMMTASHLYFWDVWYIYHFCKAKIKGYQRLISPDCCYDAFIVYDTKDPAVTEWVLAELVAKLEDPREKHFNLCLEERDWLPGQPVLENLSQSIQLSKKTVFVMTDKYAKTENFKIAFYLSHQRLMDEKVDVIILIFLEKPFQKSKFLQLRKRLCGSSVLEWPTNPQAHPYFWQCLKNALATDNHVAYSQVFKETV

SMILES	pEC50 (TLR7)	pEC50 (TLR8)
Cc1c(C2C[C@H]3CNC[C@H]3C2)sc2[nH]c(-c3cc(C)c4ncnn4c3)c(C(C)C)c12 (single isomer, unassigned) [Example 69]	10.30	8.38
Cc1c(-c2[nH]c3sc(C4CC5(CCN(CC(N)=O)C5)C4)c(C)c3c2C(C)C)cn2ncnc2c1C (single isomer, unassigned) [Example 85, 2-(2-(5-(7,8-dimethyl-[1,2,4]triazolo[1,5-a]pyridin-6-yl)-4 isopropyl-3-methyl-6H-thieno[2,3-b]pyrrol-2-yl)-6-azaspiro[3.4]octan-6-yl)acetamide]	9.46	9.41
Cc1c(-c2[nH]c3sc(C4CC5(CCN(CC(N)=O)C5)C4)c(C)c3c2C(C)C)cn2ncnc2c1C (single isomer, unassigned) [Example 86, 2-(2-(5-(7,8-dimethyl-[1,2,4]triazolo[1,5-a]pyridin-6-yl)-4-isopropyl-3-methyl-6H-thieno[2,3-b]pyrrol-2-yl)-6-azaspiro[3.4]octan-6-yl)acetamide]	8.61	9.01
Cc1c(-c2[nH]c3sc(C4COC5(CCN(CC(N)=O)CC5)C4)c(C)c3c2C(C)C)cn2ncnc2c1C (single isomer, unassigned) [Example 87, 2-(3-(5-(7,8-dimethyl-[1,2,4]triazolo[1,5-a]pyridin-6-yl)-4-isopropyl-3-methyl-6H-thieno[2,3-b]pyrrol-2-yl)-1-oxa-8-azaspiro[4.5]decan-8-yl)acetamide]	9.06	7.68
Cc1c(-c2[nH]c3sc(C4COC5(CCN(CC(N)=O)CC5)C4)c(C)c3c2C(C)C)cn2ncnc2c1C (single isomer, unassigned) [Example 88, 2-(3-(5-(7,8-dimethyl-[1,2,4]triazolo[1,5-a]pyridin-6-yl)-4-isopropyl-3-methyl-6H-thieno[2,3-b]pyrrol-2-yl)-1-oxa-8-azaspiro[4.5]decan-8-yl)acetamide]	8.84	7.62
Cc1c(-c2[nH]c3sc(C4CC5(CNCCO5)C4)c(C)c3c2C(C)C)cn2ncnc2c1C (single isomer, unassigned) [Example 89, 2-(5-(7,8-dimethyl-[1,2,4]triazolo[1,5-a]pyridin-6-yl)-4-isopropyl-3-methyl-6H-thieno[2,3-b]pyrrol-2-yl)-5-oxa-8-azaspiro[3.5]nonane]	9.70	
Cc1c(-c2[nH]c3sc(C4CC5(CNCCO5)C4)c(C)c3c2C(C)C)cn2ncnc2c1C (single isomer, unassigned) [Example 90, 2-(5-(7,8-dimethyl-[1,2,4]triazolo[1,5-a]pyridin-6-yl)-4-isopropyl-3-methyl-6H-thieno[2,3-b]pyrrol-2-yl)-5-oxa-8-azaspiro[3.5]nonane]	8.57	8.17
Cc1c(-c2[nH]c3sc([C@@H]4C[C@@H]5CC[C@H]4CN5CC(N)=O)c(C)c3c2C(C)C)cn2ncnc2c1C (single isomer, unassigned) [Example 95]	9.15	8.35
Cc1c(-c2[nH]c3sc([C@H]4C[C@@H]5CC[C@H]4CN5CC(N)=O)c(C)c3c2C(C)C)cn2ncnc2c1C (single isomer, unassigned) [Example 96]	9.08	8.17
Cc1c(-c2[nH]c3sc([C@@H]4C[C@@H]5C[C@H]4CN5C(C)C(N)=O)c(C)c3c2C(C)C)cn2ncnc2c1C (single isomer, unassigned) [Example 101]	9.49	9.14
Cc1c(-c2[nH]c3sc(C45CCN(CC(N)=O)CC4C5)c(C)c3c2C(C)C)cn2ncnc2c1C (single isomer, unassigned) [Example 102, 2-[6-[5-(7,8-dimethyl-[1,2,4]triazolo[1,5-a]pyridin-6-yl)-4-isopropyl-3-methyl-6H-thieno[2,3-b]pyrrol-2-yl]-3-azabicyclo[4.1.0]heptan-3-yl]acetamide]	10.05	7.64
